Laboratory results reported in patent US4711890A, “Pharmaceutical compositions containing azanaphthalene-carboxamide derivatives, azanaphthalene-carboxamide derivatives and process for their use” (Rhone-Poulenc Sante, priority 1982, dated 1987).

Test system: not given
Assay: not given
Details: GHAZAL et al., Egypt. Pharm. Bull., 1960, 42, 465; cited from earlier work
In the case of `CCN(CC)C(=O)c1cc(-c2ccccc2)nc2ccccc12` [Example 1, N,N-diethyl-2-phenylquinoline-4-carboxamide], the “pharmacological properties described in the literature” value is listed as “uricosuric and anti-pyretic properties”.

Test system: binding sites for [^3 H] diazepam in the brain
Assay: not given
Details: [3H] diazepam sites; cited from earlier work
For `CN1C(=O)CN=C(c2ccc(Cl)cc2)c2cc(Cl)ccc21` [Ro-5-4864, 7-chloro-5-(p-chlorophenyl)-1,3-dihydro-1-methyl-2H-1,4-benzodiazepin-2-one], the “affinity / activity at brain (central) binding sites, in words” value is listed as “inactive”. In the case of `O=C1CN=C(c2ccccc2Cl)c2cc([N+](=O)[O-])ccc2N1` [clonazepam], the “affinity / activity at brain (central) binding sites, in words” value is listed as “very strong affinity”.

Biological target: T1, peripheral-type receptor sites for benzodiazepines (Rattus norvegicus, UniProt P16257)
T1 construct: on rat kidney membranes; from tissue; host or cells: rat kidney membranes
Assay: Affinity for the peripheral-type receptor sites for benzodiazepines: displacement of 3H-diazepam on rat kidney membranes
Type: binding
Details: peripheral versus cerebral benzodiazepine receptors
Experimental: The affinity of the compounds of formula (I) for the peripheral-type receptor sites was determined, using the procedure of BRAESTRUP et al., Proc. Natl. Acad. Sci. U.S.A., 1977, 74, 3805, on rat kidney membranes.
With `CCN(CC)C(=O)c1cc(-c2ccccc2)cc2ccccc12` [Example 20, N,N-diethyl-3-phenylnaphthalene-1-carboxamide] the “preferential action on peripheral receptors (versus cerebral)” value was “act preferentially on peripheral receptors”.

Same assay, conditions: rat kidney membranes, 3H-diazepam displacement
In the case of `CCN(CC)C(=O)c1cc(-c2ccccc2Cl)nc2ccccc12` [Example 8, N,N-diethyl-2-(2-chlorophenyl)-quinoline-4-carboxamide], the Ki is reported as 117 nM. `CCN(CC)C(=O)c1cc(-c2ccc(F)cc2)nc2ccccc12` [Example 10, N,N-diethyl-2-(4-fluorophenyl)-quinoline-4-carboxamide] gave a Ki of 160 nM. In the case of `CCC(C)N(C)C(=O)c1cc(-c2ccccc2Cl)nc2ccccc12` (stereo not drawn) [Example 15, N-methyl-N-(1-methylpropyl)-2-(2-chlorophenyl)-quinoline-4-carboxamide], the Ki is reported as 31 nM. With `CCC(C)N(C(=O)c1cc(-c2ccccc2Cl)nc2ccccc12)C(C)CC` (stereo not drawn) [Example 16, N,N-di-(1-methylpropyl)-2-(2-chlorophenyl)-quinoline-4-carboxamide] the Ki was 72 nM. With `CCC(C)N(CC)C(=O)c1cc(-c2ccccc2Cl)nc2ccccc12` (stereo not drawn) [Example 17, N-ethyl-N-(1-methylpropyl)-2-(2-chlorophenyl)-quinoline-4-carboxamide] the Ki was 9 nM. In the case of `O=C(c1cc(-c2ccccc2Cl)nc2ccccc12)N1CCCCC1` [Example 18, 1-[2-(2-chlorophenyl)-quinolin-4-yl]-carbonylpiperidine], the Ki is reported as 360 nM. Molecule `CCN(CC)C(=O)c1cc(-c2ccccc2)cc2ccccc12` [Example 20, N,N-diethyl-3-phenylnaphthalene-1-carboxamide] has a Ki of 2 nM. Molecule `CCC(C)N(C)C(=O)c1cc(-c2ccccc2)cc2ccccc12` (stereo not drawn) [Example 21, N-methyl-N-(1-methylpropyl)-3-phenylnaphthalene-1-carboxamide] has a Ki of 58 nM. `CCN(CC)C(=O)c1nc(-c2ccccc2Cl)nc2ccccc12` [Example 22, N,N-diethyl-2-(2-chlorophenyl)-quinazoline-4-carboxamide] showed a Ki of 270 nM. Work on `CCN(CC)C(=O)c1cc(-c2ccc(Cl)c(Cl)c2)nc2ccccc12` [Example 37, N,N-diethyl-2-(3,4-dichlorophenyl)-quinoline-4-carboxamide] yielded a Ki of 117 nM. Molecule `CC1CCCC(C)N1C(=O)c1cc(-c2ccccc2Cl)nc2ccccc12` (stereo not drawn) [Example 39, 1-{[2-(2-chlorophenyl)-quinolin-4-yl]-carbonyl}-2,6-dimethylpiperidine] has a Ki of 54 nM. `CCC(C)N(C)C(=O)c1cc(-c2ccccc2)nc2ccccc12` (stereo not drawn) [Example 43, N-methyl-N-(1-methylpropyl)-2-phenylquinoline-4-carboxamide] showed a Ki of 100 nM. Molecule `CCC(C)N(C)C(=O)c1nc(-c2ccccc2)cc2ccccc12` (stereo not drawn) [Example 51, N-methyl-N-(1-methylpropyl)-3-phenylisoquinoline-1-carboxamide] has a Ki of 45 nM.

Biological target: cerebral receptor sites for benzodiazepines
Assay: Affinity for the cerebral-type receptor sites for benzodiazepines: displacement of 3H-diazepam on rat brain membranes
Type: binding
Details: 3H-diazepam displacement
Experimental: The affinity of the compounds of formula (I) for the cerebral receptor sites for benzodiazepines was determined, by the method of MOHLER et al, Life Sciences, 1977, 20, 2101, on rat brain membranes.
`CNC1=Nc2ccc(Cl)cc2C(c2ccccc2)=[N+]([O-])C1` [Chlorodiazepoxide, reference compound] showed a Ki of 80 nM. In the case of `CCN(CC)C(=O)c1cc(-c2ccccc2)nc2ccccc12` [Example 1, N,N-diethyl-2-phenylquinoline-4-carboxamide], the Ki is reported as 50 nM. Molecule `O=C(c1cc(-c2ccccn2)nc2ccccc12)N1CCCCC1` [Example 3, 1-[2-(pyridin-2-yl)-quinolin-4-yl]-carbonylpiperidine] has a Ki of 160 nM. Molecule `O=C(c1cc(-c2ccccc2)nc2ccccc12)N1CCCCC1` [Example 4, 1-(2-phenylquinolin-4-yl)-carbonylpiperidine] has a Ki of 40 nM. `O=C(c1cc(-c2ccccc2)nc2ccccc12)N1CCOCC1` [Example 5, 4-(2-phenylquinolin-4-yl)-carbonylmorpholine] showed a Ki of 90 nM. For `CCN(CC)C(=O)c1cc(-c2ccc(F)cc2)nc2ccccc12` [Example 10, N,N-diethyl-2-(4-fluorophenyl)-quinoline-4-carboxamide], the Ki was 210 nM. `O=C(c1cc(-c2ccccc2)nc2ccccc12)N1CCCC1` [Example 11, 1-(2-phenylquinolin-4-yl)-carbonylpyrrolidine] gave a Ki of 130 nM. Work on `CCN(CC)C(=O)c1cc(-c2ccc(C)cc2)nc2ccccc12` [Example 24, N,N-diethyl-2-(4-methylphenyl)-quinoline-4-carboxamide] yielded a Ki of 330 nM. `CCN(CC)C(=O)c1nc(-c2ccccc2)nc2ccccc12` [Example 25, N,N-diethyl-2-phenylquinazoline-4-carboxamide] gave a Ki of 390 nM. `O=C(c1nc(-c2ccccc2)nc2ccccc12)N1CCCC1` [Example 26, 1-[(2-phenylquinazolin-4-yl)-carbonyl]-pyrrolidine] showed a Ki of 90 nM. In the case of `O=C(c1nc(-c2ccccc2)nc2ccccc12)N1CCCCC1` [Example 27, 1-[(2-phenylquinazolin-4-yl)-carbonyl]-piperidine], the Ki is reported as 70 nM. For `CCN(CC)C(=O)c1cc(-c2ccccc2F)nc2ccccc12` [Example 38, N,N-diethyl-2-(2-fluorophenyl)-quinoline-4-carboxamide], the Ki was 310 nM. With `CCN(CCC1CCNCC1)C(=O)c1cc(-c2ccccc2)nc2ccccc12` [Example 49, N-ethyl-N-[2-(piperidin-4-yl)-ethyl]-2-phenylquinoline-4-carboxamide] the Ki was 400 nM. Work on `O=C1CCN(C(=O)c2nc(-c3ccccc3)nc3ccccc23)CC1` [Example 53, 1-[(2-phenylquinazolin-4-yl)-carbonyl]-piperidin-4-one] yielded a Ki of 270 nM.

Test system: binding sites for [^3 H] diazepam in the kidneys
Assay: not given
Details: kidneys / peripheral level, [3H] diazepam sites; cited from earlier work
In the case of `CN1C(=O)CN=C(c2ccc(Cl)cc2)c2cc(Cl)ccc21` [Ro-5-4864, 7-chloro-5-(p-chlorophenyl)-1,3-dihydro-1-methyl-2H-1,4-benzodiazepin-2-one], the “affinity / activity at kidney (peripheral) binding sites, in words” value is given as “very active”. For `O=C1CN=C(c2ccccc2Cl)c2cc([N+](=O)[O-])ccc2N1` [clonazepam], the “affinity / activity at kidney (peripheral) binding sites, in words” value is given as “virtually inactive”.
